Results from patent publication US8604001B2, “Use of sulfated oligosaccharides as slimming cosmetic ingredients” (priority 2007, dated 2013).

Assays:
normal human adipocytes [1] = assay: Stimulation of lipolysis (Non-Esterified Fatty Acids released) in suspensions of human adipocytes; format: cell-based; details: 1 mM; for NEFA: 2 hours at 37° C., control 96
Procedure: The lipolysis stimulation activity was evaluated in suspensions of human adipocytes isolated from a sample taken during an abdominal plasty performed on a person. The adipocytes suspension was incubated, for 2 hours at 37° C. with 3 or 5% of a solution of sulfated oligosaccharides prepared according to example 1 (16 hours of, hydrolysis time) in percentage of total weight of the culture, or with standard study solutions (1 mM theophylline or caffeine) or in the absence of solutions (control). Each assay was performed 6 times. At the end of the incubation period, the Non-Esterified Fatty Acids (NEFA) which were; present in the incubation mediums were measured with commercially available dosage kits (OXOID 46 551).

[2] = system: thighs of healthy volunteers; assay: Slimming effect of hydro-alcohol gels: thigh circumference measured in centimeters over 8 weeks; details: for change of thigh circumference versus T0: hydro-alcohol gel applied twice a day, 25 volunteers
normal human adipocytes [3] = assay: Inhibition of lipogenesis ([2-14C] acetate incorporation into lipids) in suspensions of human adipocytes; format: cell-based; details: 1 mM; for cpm (radioactivity of extracted lipids): 1 h preincubation, 4 h with [2-14C] acetate, control 472253
Procedure: The ex vivo inhibition of lipogenesis was evaluated in suspensions of human adipocytes which were isolated from a sampling taken during an abdominal plasty performed on a person. The adipocytes suspension was incubated for one hour at 37° C. with 3 or 5% of a solution of sulfated oligosaccharides prepared according to example 1 (hydrolysis time: 16 hours), or with a standard study solution (1 mM theophylline or caffeine), on in the absence of these solutions (control). Each assay was done in triplicate. A radioactive marker [2-^14C] acetate was then added to the various assays at a concentration of 2.5 μCi/mL. After 4 hours of incubation at 37° C., the lipids were extracted by a methanol/chloroform/water mixture and then dehydrated. The radioactivity, expressed in counts per minute (cpm), is then quantified through liquid scintigraphy (LKB 1210 Rackbeta). The statistical analysis was performed according to the Dunnett's multiple comparison test.

Compound	% Control (lipolysis, NEFA) (normal human adipocytes [1]) [%]	NEFA (normal human adipocytes [1]) [µM]	change of thigh circumference versus T0 ([2]; 14 days) [cm]	change of thigh circumference versus T0 ([2]; 28 days) [cm]	average decrease of the circumference of the thigh ([2]; 56 days, gel applied twice a day) [cm]	change of thigh circumference versus T0 ([2]; 56 days) [cm]	slimming effect (in words) ([2]; after 14 treatment days)	% Control (lipogenesis) (normal human adipocytes [3]) [%]	cpm (radioactivity of extracted lipids) (normal human adipocytes [3]) [cpm]
Cn1c(=O)c2c(ncn2C)n(C)c1=O [Caffeine, caffeine]	547	525	0	−0.1	0.3	−0.3	no slimming effect	4	20741
Cn1c(=O)c2[nH]cnc2n(C)c1=O [Theophylline, theophylline]	560	537	–	–	–	–	–	6	27225
